Tests used:
Experiment in all cases: cells
Format in all cases: functional, cell-based
Settings in all cases: Homo sapiens
TE-8 = test system: TE-8;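 further: growth inhibition of TE-8 cells, measured with a cell viability readout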
Description: SANGER: Inhibition of human TE-8 cell growth in a cell viability assay.

NCI-H1838 = test system: NCI-H1838;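 further: growth inhibition of NCI-H1838 cells, determined with a cell viability readout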
Description: SANGER: Inhibition of human NCI-H1838 cell growth in a cell viability assay.

LAN-6 = test system: LAN-6;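 further: growth inhibition of LAN-6 cells, determined with a cell viability assay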
Description: SANGER: Inhibition of human LAN-6 cell growth in a cell viability assay.

8-MG-BA = test system: 8-MG-BA;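 further: growth inhibition of 8-MG-BA cells, read out with a cell viability assay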
Description: SANGER: Inhibition of human 8-MG-BA cell growth in a cell viability assay.

LB373-MEL-D = test system: LB373-MEL-D;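 further: growth inhibition of the cell line, read out in a cell viability assay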
Description: SANGER: Inhibition of human LB373-MEL-D cell growth in a cell viability assay.

SK-PN-DW = test system: SK-PN-DW;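 further: growth inhibition measured with a viability assay on these cells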
Description: SANGER: Inhibition of human SK-PN-DW cell growth in a cell viability assay.

NB5 = test system: NB5;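 further: growth inhibition of NB5 cells, read out as cell viability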
Description: SANGER: Inhibition of human NB5 cell growth in a cell viability assay.

NH-12 = test system: NH-12;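 further: growth inhibition of NH-12 cells, read out with a cell viability assay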
Description: SANGER: Inhibition of human NH-12 cell growth in a cell viability assay.

OCUB-M = test system: OCUB-M;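 further: growth inhibition of the cancer cell line, read out through a cell viability assay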
Description: SANGER: Inhibition of human OCUB-M cell growth in a cell viability assay.

LOX IMVI = test system: LOX IMVI
Description: SANGER: Inhibition of human LOXIMVI cell growth in a cell viability assay.

GR-ST = test system: GR-ST
Description: SANGER: Inhibition of human GR-ST cell growth in a cell viability assay.

SK-UT-1 = test system: SK-UT-1;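 further: growth inhibition of SK-UT-1 cells, measured by a cell viability assay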
Description: SANGER: Inhibition of human SK-UT-1 cell growth in a cell viability assay.

OCI-AML2 = test system: OCI-AML2;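 further: growth inhibition of OCI-AML2 cells, read out with a cell viability assay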
Description: SANGER: Inhibition of human OCI-AML2 cell growth in a cell viability assay.

MLMA = test system: MLMA;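 further: growth inhibition of MLMA cells (human), determined through a cell viability readout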
Description: SANGER: Inhibition of human MLMA cell growth in a cell viability assay.

ES7 = test system: ES7;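 further: growth inhibition of cultured human ES7 cells, read out as cell viability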
Description: SANGER: Inhibition of human ES7 cell growth in a cell viability assay.

RKO = test system: RKO;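 further: growth inhibition of human RKO cells, read out with a cell viability assay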
Description: SANGER: Inhibition of human RKO cell growth in a cell viability assay.

HT = test system: HT
Description: SANGER: Inhibition of human HT cell growth in a cell viability assay.

TE-10 = test system: TE-10;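 further: growth inhibition of TE-10 cells, measured by a cell viability assay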
Description: SANGER: Inhibition of human TE-10 cell growth in a cell viability assay.

PSN1 = test system: PSN1;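 further: suppression of growth of human PSN1 cells, read out by a cell viability assay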
Description: SANGER: Inhibition of human PSN1 cell growth in a cell viability assay.

697 = test system: 697
Description: SANGER: Inhibition of human 697 cell growth in a cell viability assay.

ES1 = test system: ES1;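 further: growth inhibition of ES1 cells, read out with a cell viability assay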
Description: SANGER: Inhibition of human ES1 cell growth in a cell viability assay.

TE-9 = test system: TE-9;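 further: cell growth inhibition, measured with a cell viability readout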
Description: SANGER: Inhibition of human TE-9 cell growth in a cell viability assay.

MC116 = test system: MC116;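 further: growth inhibition of MC116 cells, read out with a cell viability assay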
Description: SANGER: Inhibition of human MC116 cell growth in a cell viability assay.

LXF-289 cell line = test system: LXF-289 cell line
Description: SANGER: Inhibition of human LXF-289 cell growth in a cell viability assay.

NCI-H1304 = test system: NCI-H1304;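 further: growth inhibition of the cancer cell line, measured in a cell viability assay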
Description: SANGER: Inhibition of human NCI-H1304 cell growth in a cell viability assay.

BB30-HNC = test system: BB30-HNC;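 further: growth inhibition of the cultured cell line, read out by a cell viability assay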
Description: SANGER: Inhibition of human BB30-HNC cell growth in a cell viability assay.

BT-474 = test system: BT-474
Description: SANGER: Inhibition of human BT-474 cell growth in a cell viability assay.

UACC-257 = test system: UACC-257
Description: SANGER: Inhibition of human UACC-257 cell growth in a cell viability assay.

EW-1 = test system: EW-1;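 further: growth inhibition of the human EW-1 cell line, read out by a cell viability assay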
Description: SANGER: Inhibition of human EW-1 cell growth in a cell viability assay.

MFM-223 = test system: MFM-223
Description: SANGER: Inhibition of human MFM-223 cell growth in a cell viability assay.

NCI-H1650 = test system: NCI-H1650;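 further: growth inhibition of human NCI-H1650 cells measured by a cell viability assay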
Description: SANGER: Inhibition of human NCI-H1650 cell growth in a cell viability assay.

MMAC-SF = test system: MMAC-SF;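 further: growth inhibition of human MMAC-SF cells, read out with a cell viability assay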
Description: SANGER: Inhibition of human MMAC-SF cell growth in a cell viability assay.

LS-513 = test system: LS-513
Description: SANGER: Inhibition of human LS-513 cell growth in a cell viability assay.

NCI-H446 = test system: NCI-H446;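 further: growth inhibition of NCI-H446 cells determined by a cell viability assay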
Description: SANGER: Inhibition of human NCI-H446 cell growth in a cell viability assay.

TE-6 = test system: TE-6;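 further: growth inhibition of TE-6 cells, read out with a cell viability assay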
Description: SANGER: Inhibition of human TE-6 cell growth in a cell viability assay.

NCI-H226 = test system: NCI-H226;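 further: cell viability read-out used to gauge growth inhibition of the cells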
Description: SANGER: Inhibition of human NCI-H226 cell growth in a cell viability assay.

DB = test system: DB
Description: SANGER: Inhibition of human DB cell growth in a cell viability assay.

LB771-HNC = test system: LB771-HNC;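 further: growth inhibition of LB771-HNC human cells, read out with a cell viability assay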
Description: SANGER: Inhibition of human LB771-HNC cell growth in a cell viability assay.

NB6 = test system: NB6;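 further: growth inhibition of NB6 cells, read out by a cell viability assay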
Description: SANGER: Inhibition of human NB6 cell growth in a cell viability assay.

SNU-C2B = test system: SNU-C2B;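 further: cell viability readout used to measure compound-driven suppression of SNU-C2B cell proliferation, IC50 marking half-maximal growth inhibition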
Description: SANGER: Inhibition of human SNU-C2B cell growth in a cell viability assay.

CCRF-CEM = test system: CCRF-CEM;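 further: inhibition of CCRF-CEM cell growth, measured by a cell viability assay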
Description: SANGER: Inhibition of human CCRF-CEM cell growth in a cell viability assay.

NCI-H1092 = test system: NCI-H1092;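 further: cell growth inhibition measured with a cell viability assay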
Description: SANGER: Inhibition of human NCI-H1092 cell growth in a cell viability assay.

SF-268 = test system: SF-268;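 further: growth inhibition of SF-268 cells determined with a cell viability assay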
Description: SANGER: Inhibition of human SF268 cell growth in a cell viability assay.

K562 = test system: K562
Description: SANGER: Inhibition of human K-562 cell growth in a cell viability assay.

HT-144 = test system: HT-144
Description: SANGER: Inhibition of human HT-144 cell growth in a cell viability assay.

OVCAR-4 = test system: OVCAR-4;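 further: growth inhibition of human OVCAR-4 cells, measured with a cell viability assay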
Description: SANGER: Inhibition of human OVCAR-4 cell growth in a cell viability assay.

LB2518-MEL = test system: LB2518-MEL;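 further: growth inhibition of human LB2518-MEL cells, measured with a cell viability assay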
Description: SANGER: Inhibition of human LB2518-MEL cell growth in a cell viability assay.

MZ7-mel = test system: MZ7-mel;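 further: growth inhibition of human MZ7-mel cells, measured by a cell viability assay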
Description: SANGER: Inhibition of human MZ7-mel cell growth in a cell viability assay.

LC-2-ad = test system: LC-2-ad;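 further: growth inhibition of human LC-2-ad cells, read out with a cell viability assay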
Description: SANGER: Inhibition of human LC-2-ad cell growth in a cell viability assay.

KARPAS-299 = test system: KARPAS-299
Description: SANGER: Inhibition of human KARPAS-299 cell growth in a cell viability assay.

Mo = test system: Mo
Description: SANGER: Inhibition of human Mo-T cell growth in a cell viability assay.

DSH1 = test system: DSH1;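 further: growth inhibition of human DSH1 cells, measured with a cell viability readout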
Description: SANGER: Inhibition of human DSH1 cell growth in a cell viability assay.

NMC-G1 = test system: NMC-G1;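 further: growth inhibition of the NMC-G1 cell line, measured with a cell viability read-out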
Description: SANGER: Inhibition of human NMC-G1 cell growth in a cell viability assay.

Ramos-2G6-4C10 = test system: Ramos-2G6-4C10;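 further: growth inhibition of the cell line, measured by a cell viability read-out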
Description: SANGER: Inhibition of human Ramos-2G6-4C10 cell growth in a cell viability assay.

A101D = test system: A101D;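 further: growth inhibition of the cell line, measured with a viability assay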
Description: SANGER: Inhibition of human A101D cell growth in a cell viability assay.

RCC10RGB = test system: RCC10RGB;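 further: growth inhibition of human RCC10RGB cells, read out by a cell viability assay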
Description: SANGER: Inhibition of human RCC10RGB cell growth in a cell viability assay.

BE-13 = test system: BE-13;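 further: growth inhibition of human BE-13 cells, measured with a cell viability assay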
Description: SANGER: Inhibition of human BE-13 cell growth in a cell viability assay.

NCI-H82 = test system: NCI-H82;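 further: growth inhibition of NCI-H82 cells, measured with a cell viability readout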
Description: SANGER: Inhibition of human NCI-H82 cell growth in a cell viability assay.

CGTH-W-1 = test system: CGTH-W-1;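 further: growth inhibition of human CGTH-W-1 cells measured by cell viability assay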
Description: SANGER: Inhibition of human CGTH-W-1 cell growth in a cell viability assay.

IA-LM = test system: IA-LM;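 further: cell viability assay measuring growth inhibition of human IA-LM cells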
Description: SANGER: Inhibition of human IA-LM cell growth in a cell viability assay.

MZ1-PC = test system: MZ1-PC;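 further: cell viability assay measuring growth inhibition of human MZ1-PC cells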
Description: SANGER: Inhibition of human MZ1-PC cell growth in a cell viability assay.

RPMI-8226 = test system: RPMI-8226
Description: SANGER: Inhibition of human RPMI-8226 cell growth in a cell viability assay.

LU-139 = test system: LU-139
Description: SANGER: Inhibition of human LU-139 cell growth in a cell viability assay.

SNU-5 = test system: SNU-5
Description: SANGER: Inhibition of human NCI-SNU-5 cell growth in a cell viability assay.

SMILES: O=c1cc(N2CCOCC2)oc2c(-c3cccc4c3sc3ccccc34)cccc12
- IC50 (TE-8): > 2000 nM
- IC50 (NCI-H1838): > 2000 nM
- IC50 (LAN-6): > 2000 nM
- IC50 (8-MG-BA): > 2000 nM
- IC50 (LB373-MEL-D): > 2000 nM
- IC50 (SK-PN-DW): > 2000 nM
- IC50 (NB5): > 2000 nM
- IC50 (NH-12): > 2000 nM
- IC50 (OCUB-M): > 2000 nM
- IC50 (LOX IMVI): > 2000 nM
- IC50 (GR-ST): > 2000 nM
- IC50 (SK-UT-1): > 2000 nM
- IC50 (OCI-AML2): > 2000 nM
- IC50 (MLMA): > 2000 nM
- IC50 (ES7): > 2000 nM
- IC50 (RKO): > 2000 nM
- IC50 (HT): > 2000 nM
- IC50 (TE-10): > 2000 nM
- IC50 (PSN1): > 2000 nM
- IC50 697: > 2000 nM
- IC50 (ES1): > 2000 nM
- IC50 (TE-9): > 2000 nM
- IC50 (MC116): > 2000 nM
- IC50 (LXF-289 cell line): > 2000 nM
- IC50 (NCI-H1304): > 2000 nM
- IC50 (BB30-HNC): > 2000 nM
- IC50 (BT-474): > 2000 nM
- IC50 (UACC-257): > 2000 nM
- IC50 (EW-1): > 2000 nM
- IC50 (MFM-223): > 2000 nM
- IC50 (NCI-H1650): > 2000 nM
- IC50 (MMAC-SF): > 2000 nM
- IC50 (LS-513): > 2000 nM
- IC50 (NCI-H446): > 2000 nM
- IC50 (TE-6): > 2000 nM
- IC50 (NCI-H226): > 2000 nM
- IC50 (DB): > 2000 nM
- IC50 (LB771-HNC): > 2000 nM
- IC50 (NB6): > 2000 nM
- IC50 (SNU-C2B): > 2000 nM
- IC50 (CCRF-CEM): > 2000 nM
- IC50 (NCI-H1092): > 2000 nM
- IC50 (SF-268): > 2000 nM
- IC50 (K562): > 2000 nM
- IC50 (HT-144): > 2000 nM
- IC50 (OVCAR-4): > 2000 nM
- IC50 (LB2518-MEL): > 2000 nM
- IC50 (MZ7-mel): > 2000 nM
- IC50 (LC-2-ad): > 2000 nM
- IC50 (KARPAS-299): > 2000 nM
- IC50 (Mo): > 2000 nM
- IC50 (DSH1): > 2000 nM
- IC50 (NMC-G1): > 2000 nM
- IC50 (Ramos-2G6-4C10): > 2000 nM
- IC50 (A101D): > 2000 nM
- IC50 (RCC10RGB): > 2000 nM
- IC50 (BE-13): > 2000 nM
- IC50 (NCI-H82): > 2000 nM
- IC50 (CGTH-W-1): > 2000 nM
- IC50 (IA-LM): > 2000 nM
- IC50 (MZ1-PC): > 2000 nM
- IC50 (RPMI-8226): > 2000 nM

SMILES: Cn1c(=O)n(-c2ccc(C(C)(C)C#N)cc2)c2c3cc(-c4cnc5ccccc5c4)ccc3ncc21 [DACTOLISIB]
- IC50 (TE-8): 66.5 nM
- IC50 (NCI-H1838): 1020 nM
- IC50 (LAN-6): > 2000 nM
- IC50 (8-MG-BA): 37.3 nM
- IC50 (SK-PN-DW): 235 nM
- IC50 (NB5): 40.6 nM
- IC50 (NH-12): 133 nM
- IC50 (OCUB-M): 82.4 nM
- IC50 (LOX IMVI): 15 nM
- IC50 (GR-ST): 52.9 nM
- IC50 (OCI-AML2): 82.6 nM
- IC50 (MLMA): 137 nM
- IC50 (ES7): 18.1 nM
- IC50 (RKO): 38.3 nM
- IC50 (HT): 41 nM
- IC50 (LU-139): 7.77 nM
- IC50 (TE-10): 407 nM
- IC50 (PSN1): 44.4 nM
- IC50 697: 17.4 nM
- IC50 (ES1): 28.8 nM
- IC50 (TE-9): 1130 nM
- IC50 (MC116): 57.8 nM
- IC50 (LXF-289 cell line): 26 nM
- IC50 (NCI-H1304): 1650 nM
- IC50 (BB30-HNC): 131 nM
- IC50 (BT-474): 236 nM
- IC50 (UACC-257): 214 nM
- IC50 (SNU-5): 337 nM
- IC50 (EW-1): 120 nM
- IC50 (MFM-223): 132 nM
- IC50 (NCI-H1650): 204 nM
- IC50 (LS-513): 141 nM
- IC50 (NCI-H446): 95.1 nM
- IC50 (TE-6): 220 nM
- IC50 (NCI-H226): 708 nM
- IC50 (DB): 27.4 nM
- IC50 (LB771-HNC): 286 nM
- IC50 (NB6): 397 nM
- IC50 (SNU-C2B): 181 nM
- IC50 (CCRF-CEM): > 2000 nM
- IC50 (NCI-H1092): 145 nM
- IC50 (SF-268): 102 nM
- IC50 (K562): > 2000 nM
- IC50 (HT-144): 196 nM
- IC50 (OVCAR-4): 73.4 nM
- IC50 (LB2518-MEL): 157 nM
- IC50 (MZ7-mel): 324 nM
- IC50 (LC-2-ad): 159 nM
- IC50 (KARPAS-299): 1790 nM
- IC50 (Mo): 948 nM
- IC50 (DSH1): 407 nM
- IC50 (NMC-G1): 121 nM
- IC50 (Ramos-2G6-4C10): 8.49 nM
- IC50 (A101D): 39 nM
- IC50 (RCC10RGB): 224 nM
- IC50 (BE-13): 31.8 nM
- IC50 (NCI-H82): > 2000 nM
- IC50 (CGTH-W-1): 20.6 nM
- IC50 (IA-LM): 108 nM
- IC50 (MZ1-PC): 206 nM
- IC50 (RPMI-8226): 33.8 nM
